Laboratory results published in ChEMBL document CHEMBL1201862, “PubChem BioAssay data set” (2004).
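Dose response: 5 concentrations. Exposure: 48 h. Format: 96-well plates. Endpoint: linear interpolation; highest concentration if not reached. GI50: concentration for 50% inhibition of growth.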 Active and inactive are the calls of the source. No stated cut-off is given here; in the data, active = GI50 up to about 1.1 µM and inactive = higher.

Experiments:
Assay in all cases: growth of human tumour cells (NCI), 48 h
786-0 = system: 786-0
A498 = system: A498
A549 = system: A549
ACHN = system: ACHN
BT-549 = system: BT-549
CAKI-1 = system: CAKI-1
CCRF-CEM = system: CCRF-CEM
COLO 205 = system: COLO 205
DU-145 = system: DU-145
EKVX = system: EKVX
HCT-116 = system: HCT-116
HCT-15 = system: HCT-15
HL-60 = system: HL-60
HOP-62 = system: HOP-62
HOP-92 = system: HOP-92
HT-29 = system: HT-29
Hs-578T = system: Hs-578T
IGROV-1 = system: IGROV-1
K562 = system: K562
KM12 = system: KM12
LOX IMVI = system: LOX IMVI
M14 = system: M14
MCF7 = system: MCF7
MDA-MB-231 = system: MDA-MB-231
MDA-MB-435 = system: MDA-MB-435
MDA-N = system: MDA-N
MOLT-4 = system: MOLT-4
Malme-3M = system: Malme-3M
NCI-H226 = system: NCI-H226
NCI-H23 = system: NCI-H23
NCI-H460 = system: NCI-H460
NCI-H522 = system: NCI-H522
NCI/ADR-RES = system: NCI/ADR-RES
OVCAR-3 = system: OVCAR-3
OVCAR-4 = system: OVCAR-4
OVCAR-5 = system: OVCAR-5
OVCAR-8 = system: OVCAR-8
PC-3 = system: PC-3
RPMI-8226 = system: RPMI-8226
RXF 393 = system: RXF 393
SF-268 = system: SF-268
SF-295 = system: SF-295
SF-539 = system: SF-539
SK-MEL-28 = system: SK-MEL-28
SK-MEL-2 = system: SK-MEL-2
SK-MEL-5 = system: SK-MEL-5
SK-OV-3 = system: SK-OV-3
SN12C = system: SN12C
SNB-19 = system: SNB-19
SNB-75 = system: SNB-75
SR = system: SR
SW-620 = system: SW-620
T47D = system: T47D
TK-10 = system: TK-10
U-251 = system: U-251
UACC-257 = system: UACC-257
UACC-62 = system: UACC-62
UO-31 = system: UO-31
HCC 2998 = system: HCC 2998

Cc1cccc(CNc2[nH]cnc3nncc2-3)c1
GI50 (786-0): > 100 µM (inactive) | GI50 (A498): 40.6 µM (inactive) | GI50 (A549): > 100 µM (inactive) | GI50 (ACHN): 75.7 µM (inactive) | GI50 (BT-549): > 100 µM (inactive) | GI50 (CAKI-1): 80.7 µM (inactive) | GI50 (CCRF-CEM): > 100 µM (inactive) | GI50 (COLO 205): 95.9 µM (inactive) | GI50 (DU-145): > 100 µM (inactive) | GI50 (EKVX): 37.2 µM (inactive) | GI50 (HCT-116): > 100 µM (inactive) | GI50 (HCT-15): > 100 µM | GI50 (HL-60): > 100 µM (inactive) | GI50 (HOP-62): > 100 µM (inactive) | GI50 (HOP-92): 40.5 µM (inactive) | GI50 (HT-29): > 100 µM (inactive) | GI50 (Hs-578T): > 100 µM (inactive) | GI50 (IGROV-1): 64.4 µM (inactive) | GI50 (K562): 47.1 µM (inactive) | GI50 (KM12): > 100 µM (inactive) | GI50 (LOX IMVI): > 100 µM (inactive) | GI50 (M14): > 100 µM (inactive) | GI50 (MCF7): > 100 µM (inactive) | GI50 (MDA-MB-231): > 100 µM (inactive) | GI50 (MDA-MB-435): > 100 µM (inactive) | GI50 (MDA-N): > 100 µM (inactive) | GI50 (MOLT-4): 58.2 µM (inactive) | GI50 (Malme-3M): > 100 µM (inactive) | GI50 (NCI-H226): 49.5 µM (inactive) | GI50 (NCI-H23): > 100 µM (inactive) | GI50 (NCI-H460): > 100 µM (inactive) | GI50 (NCI-H522): 56.5 µM (inactive) | GI50 (NCI/ADR-RES): 90.2 µM (inactive) | GI50 (OVCAR-3): > 100 µM (inactive) | GI50 (OVCAR-4): 87.7 µM (inactive) | GI50 (OVCAR-5): 40.4 µM (inactive) | GI50 (OVCAR-8): 49.1 µM (inactive) | GI50 (PC-3): > 100 µM (inactive) | GI50 (RPMI-8226): 44.3 µM (inactive) | GI50 (RXF 393): > 100 µM (inactive) | GI50 (SF-268): > 100 µM (inactive) | GI50 (SF-295): > 100 µM (inactive) | GI50 (SF-539): > 100 µM (inactive) | GI50 (SK-MEL-28): > 100 µM (inactive) | GI50 (SK-MEL-2): > 100 µM (inactive) | GI50 (SK-MEL-5): 64.4 µM (inactive) | GI50 (SK-OV-3): > 100 µM (inactive) | GI50 (SN12C): 72.8 µM (inactive) | GI50 (SNB-19): > 100 µM (inactive) | GI50 (SNB-75): 53.5 µM (inactive) | GI50 (SR): 43.5 µM (inactive) | GI50 (SW-620): > 100 µM (inactive) | GI50 (T47D): 78.3 µM (inactive) | GI50 (TK-10): > 100 µM (inactive) | GI50 (U-251): > 100 µM (inactive) | GI50 (UACC-257): 76.6 µM (inactive) | GI50 (UACC-62): > 100 µM (inactive) | GI50 (UO-31): 47.4 µM (inactive)

Cc1cc(C)c(S(=O)(=O)N(CCCCCCN)OCCCON(CCCCCCN)S(=O)(=O)c2c(C)cc(C)cc2C)c(C)c1
GI50 (786-0): 1.9 µM (inactive) | GI50 (A498): 1.7 µM (inactive) | GI50 (A549): 1.72 µM (inactive) | GI50 (ACHN): 2.55 µM (inactive) | GI50 (BT-549): 1.65 µM (inactive) | GI50 (CAKI-1): 1.94 µM (inactive) | GI50 (CCRF-CEM): 2.29 µM (inactive) | GI50 (COLO 205): 1.89 µM (inactive) | GI50 (DU-145): 1.37 µM (inactive) | GI50 (EKVX): 1.79 µM (inactive) | GI50 (HCT-116): 1.69 µM (inactive) | GI50 (HCT-15): 1.8 µM | GI50 (HL-60): 2.15 µM (inactive) | GI50 (HOP-62): 1.8 µM (inactive) | GI50 (HOP-92): 1.46 µM (inactive) | GI50 (HT-29): 1.66 µM (inactive) | GI50 (Hs-578T): 2.11 µM (inactive) | GI50 (IGROV-1): 1.65 µM (inactive) | GI50 (K562): 3.61 µM (inactive) | GI50 (KM12): 1.9 µM (inactive) | GI50 (LOX IMVI): 1.7 µM (inactive) | GI50 (M14): 1.66 µM (inactive) | GI50 (MCF7): 1.91 µM (inactive) | GI50 (MDA-MB-231): 1.8 µM (inactive) | GI50 (MDA-MB-435): 2.13 µM (inactive) | GI50 (MDA-N): 1.88 µM (inactive) | GI50 (MOLT-4): 2.44 µM (inactive) | GI50 (Malme-3M): 1.45 µM (inactive) | GI50 (NCI-H226): 1.79 µM (inactive) | GI50 (NCI-H23): 1.63 µM (inactive) | GI50 (NCI-H460): 1.64 µM (inactive) | GI50 (NCI-H522): 1.73 µM (inactive) | GI50 (NCI/ADR-RES): 13.2 µM (inactive) | GI50 (OVCAR-3): 1.76 µM (inactive) | GI50 (OVCAR-4): 1.67 µM (inactive) | GI50 (OVCAR-5): 1.4 µM (inactive) | GI50 (OVCAR-8): 1.79 µM (inactive) | GI50 (PC-3): 1.77 µM (inactive) | GI50 (RPMI-8226): 2.43 µM (inactive) | GI50 (RXF 393): 1.7 µM (inactive) | GI50 (SF-268): 1.78 µM (inactive) | GI50 (SF-295): 1.82 µM (inactive) | GI50 (SF-539): 2.28 µM (inactive) | GI50 (SK-MEL-28): 1.83 µM (inactive) | GI50 (SK-MEL-2): 1.89 µM (inactive) | GI50 (SK-MEL-5): 1.82 µM (inactive) | GI50 (SK-OV-3): 1.71 µM (inactive) | GI50 (SN12C): 1.9 µM (inactive) | GI50 (SNB-19): 1.62 µM (inactive) | GI50 (SNB-75): 1.79 µM (inactive) | GI50 (SR): 2.51 µM (inactive) | GI50 (SW-620): 2.15 µM (inactive) | GI50 (T47D): 1.91 µM (inactive) | GI50 (TK-10): 1.58 µM (inactive) | GI50 (U-251): 1.7 µM (inactive) | GI50 (UACC-257): 1.69 µM (inactive) | GI50 (UACC-62): 1.74 µM (inactive) | GI50 (UO-31): 2.06 µM (inactive)

CCCC[C@@H](C)/C=C1\CN2CCC[C@H]2[C@@](C)(OCc2ccccc2)[C@@H]1O
GI50 (786-0): > 47.4 µM (inactive) | GI50 (A498): > 47.8 µM (inactive) | GI50 (A549): > 43.7 µM (inactive) | GI50 (ACHN): > 50 µM (inactive) | GI50 (BT-549): > 50 µM (inactive) | GI50 (CAKI-1): > 50 µM (inactive) | GI50 (CCRF-CEM): > 50 µM (inactive) | GI50 (COLO 205): > 50 µM (inactive) | GI50 (DU-145): > 14.4 µM (inactive) | GI50 (EKVX): > 31.1 µM (inactive) | GI50 (HCC 2998): > 50 µM (inactive) | GI50 (HCT-116): > 50 µM (inactive) | GI50 (HCT-15): > 50 µM | GI50 (HOP-62): 5.98 µM (inactive) | GI50 (HOP-92): > 42 µM (inactive) | GI50 (HT-29): > 50 µM (inactive) | GI50 (Hs-578T): > 50 µM (inactive) | GI50 (IGROV-1): > 30.6 µM (inactive) | GI50 (K562): > 29.9 µM (inactive) | GI50 (KM12): > 13.8 µM (inactive) | GI50 (LOX IMVI): > 50 µM (inactive) | GI50 (M14): > 50 µM (inactive) | GI50 (MCF7): > 50 µM (inactive) | GI50 (MDA-MB-231): > 50 µM (inactive) | GI50 (MDA-MB-435): > 50 µM (inactive) | GI50 (MDA-N): > 44 µM (inactive) | GI50 (MOLT-4): > 41.9 µM (inactive) | GI50 (Malme-3M): > 50 µM (inactive) | GI50 (NCI-H226): > 50 µM (inactive) | GI50 (NCI-H23): > 50 µM (inactive) | GI50 (NCI-H460): > 16.7 µM (inactive) | GI50 (NCI-H522): > 27.9 µM (inactive) | GI50 (NCI/ADR-RES): > 50 µM (inactive) | GI50 (OVCAR-3): > 17.5 µM (inactive) | GI50 (OVCAR-4): > 50 µM (inactive) | GI50 (OVCAR-5): > 50 µM (inactive) | GI50 (OVCAR-8): > 47.4 µM (inactive) | GI50 (PC-3): > 50 µM (inactive) | GI50 (RPMI-8226): > 15.5 µM (inactive) | GI50 (RXF 393): > 44.6 µM (inactive) | GI50 (SF-268): > 29.4 µM (inactive) | GI50 (SF-295): > 50 µM (inactive) | GI50 (SF-539): > 22.2 µM (inactive) | GI50 (SK-MEL-28): > 43 µM (inactive) | GI50 (SK-MEL-2): > 50 µM (inactive) | GI50 (SK-MEL-5): > 50 µM (inactive) | GI50 (SK-OV-3): > 50 µM (inactive) | GI50 (SN12C): > 50 µM (inactive) | GI50 (SNB-19): > 23.8 µM (inactive) | GI50 (SNB-75): > 32.3 µM (inactive) | GI50 (SR): > 50 µM (inactive) | GI50 (SW-620): > 50 µM (inactive) | GI50 (T47D): 8.79 µM (inactive) | GI50 (TK-10): > 38.5 µM (inactive) | GI50 (U-251): > 34.4 µM (inactive) | GI50 (UACC-257): > 17.6 µM (inactive) | GI50 (UACC-62): > 50 µM (inactive) | GI50 (UO-31): > 13.2 µM (inactive)
